According to the NIST ThermoML archive (doi:10.1016/j.jct.2011.09.027):
± gives the expanded uncertainty stated by the source.

Details: Liquid; for viscosity: Concentric cylinders viscometry; for mass density: Vibrating tube method

CCOS(=O)(=O)[O-].CCn1cc[n+](C)c1 [1-ethyl-3-methylimidazolium ethyl sulfate]
Details	mass density [kg/m3]	viscosity [mPa·s]
278.15 K, 101.33 kPa	–	309.1 ± 9.8
283.12 K, 19658 kPa	1255.37 ± 1.6	–
283.13 K, 29946 kPa	1259.21 ± 1.7	–
283.14 K, 98469 kPa	1282.72 ± 2.5	–
283.15 K, 101.33 kPa	1247.88 ± 1.4	225.2 ± 6.6
283.15 K, 40036 kPa	1262.89 ± 1.8	–
283.15 K, 49963 kPa	1266.44 ± 1.9	–
283.15 K, 59714 kPa	1269.86 ± 2.1	–
283.15 K, 69986 kPa	1273.38 ± 2.2	–
283.15 K, 79625 kPa	1276.61 ± 2.3	–
283.15 K, 89964 kPa	1280 ± 2.4	–
283.15 K, 109866 kPa	1286.29 ± 2.7	–
283.15 K, 120746 kPa	1289.61 ± 2.8	–
283.15 K, 129872 kPa	1292.32 ± 3	–
283.15 K, 139485 kPa	1295.11 ± 3.1	–
283.16 K, 1391 kPa	1248.37 ± 1.4	–
283.18 K, 9875 kPa	1251.65 ± 1.5	–
283.19 K, 5138 kPa	1249.82 ± 1.4	–
293.13 K, 39626 kPa	1256.03 ± 1.8	–
293.14 K, 1092 kPa	1241.38 ± 1.4	–
293.14 K, 3910 kPa	1242.48 ± 1.4	–
293.14 K, 9925 kPa	1244.83 ± 1.5	–
293.14 K, 19948 kPa	1248.68 ± 1.6	–
293.14 K, 29954 kPa	1252.45 ± 1.7	–
293.14 K, 123824 kPa	1284.35 ± 2.8	–
293.14 K, 129866 kPa	1286.19 ± 2.9	–
293.14 K, 140209 kPa	1289.28 ± 3.1	–
293.15 K, 101.33 kPa	1241.01 ± 1.4	123.5 ± 3.1
293.15 K, 49964 kPa	1259.78 ± 1.9	–
293.15 K, 89997 kPa	1273.58 ± 2.4	–
293.15 K, 99862 kPa	1276.81 ± 2.5	–
293.15 K, 109863 kPa	1280.01 ± 2.6	–
293.16 K, 80177 kPa	1270.3 ± 2.3	–
293.17 K, 69997 kPa	1266.83 ± 2.1	–
293.18 K, 60017 kPa	1263.35 ± 2	–
298.13 K, 19821 kPa	1245.34 ± 1.6	–
298.13 K, 29997 kPa	1249.26 ± 1.7	–
298.13 K, 39886 kPa	1252.98 ± 1.8	–
298.15 K, 49994 kPa	1256.71 ± 1.9	–
298.15 K, 58874 kPa	1259.91 ± 2	–
298.15 K, 69996 kPa	1263.83 ± 2.1	–
298.16 K, 101.33 kPa	1237.53 ± 1.4	97.2 ± 2.3
298.16 K, 10471 kPa	1241.67 ± 1.5	–
298.16 K, 79619 kPa	1267.14 ± 2.2	–
298.16 K, 89998 kPa	1270.63 ± 2.4	–
298.16 K, 99253 kPa	1273.66 ± 2.5	–
298.16 K, 109867 kPa	1277.06 ± 2.6	–
298.16 K, 120082 kPa	1280.24 ± 2.8	–
298.16 K, 129865 kPa	1283.2 ± 2.9	–
298.16 K, 139020 kPa	1285.9 ± 3	–
298.17 K, 5192 kPa	1239.56 ± 1.4	–
298.19 K, 981 kPa	1237.87 ± 1.4	–
303.15 K, 101.33 kPa	–	77.1 ± 1.8
313.1 K, 944 kPa	1227.8 ± 1.3	–
313.14 K, 4705 kPa	1229.35 ± 1.4	–
313.14 K, 39636 kPa	1243.24 ± 1.8	–
313.14 K, 49994 kPa	1247.16 ± 1.9	–
313.14 K, 60122 kPa	1250.92 ± 2	–
313.15 K, 101.33 kPa	1227.47 ± 1.3	50.9 ± 1.1
313.15 K, 19818 kPa	1235.48 ± 1.5	–
313.15 K, 30003 kPa	1239.51 ± 1.6	–
313.15 K, 69996 kPa	1254.49 ± 2.1	–
313.15 K, 109873 kPa	1268.13 ± 2.6	–
313.15 K, 120354 kPa	1271.49 ± 2.7	–
313.15 K, 129874 kPa	1274.47 ± 2.8	–
313.16 K, 9378 kPa	1231.27 ± 1.4	–
313.16 K, 79657 kPa	1257.92 ± 2.2	–
313.16 K, 89993 kPa	1261.49 ± 2.3	–
313.16 K, 99450 kPa	1264.69 ± 2.4	–
313.16 K, 138377 kPa	1277.07 ± 2.9	–
323.15 K, 101.33 kPa	–	35.1 ± 0.8
333.12 K, 19852 kPa	1222.8 ± 1.5	–
333.12 K, 79184 kPa	1246.16 ± 2.1	–
333.13 K, 9972 kPa	1218.57 ± 1.4	–
333.13 K, 89997 kPa	1250.05 ± 2.3	–
333.13 K, 97104 kPa	1252.54 ± 2.3	–
333.15 K, 101.33 kPa	1214.27 ± 1.3	25.2 ± 0.6
333.15 K, 4956 kPa	1216.39 ± 1.4	–
333.15 K, 29992 kPa	1227.03 ± 1.6	–
333.15 K, 69997 kPa	1242.77 ± 2	–
333.15 K, 109862 kPa	1256.89 ± 2.5	–
333.15 K, 121234 kPa	1260.63 ± 2.6	–
333.16 K, 49995 kPa	1235.1 ± 1.8	–
333.16 K, 60002 kPa	1238.99 ± 1.9	–
333.16 K, 129872 kPa	1263.39 ± 2.8	–
333.17 K, 1680 kPa	1214.95 ± 1.3	–
333.17 K, 40144 kPa	1231.18 ± 1.7	–
333.18 K, 139672 kPa	1266.43 ± 2.9	–
343.15 K, 101.33 kPa	–	18.7 ± 0.4
353.13 K, 19599 kPa	1209.45 ± 1.4	–
353.13 K, 29993 kPa	1214.03 ± 1.6	–
353.13 K, 39918 kPa	1218.29 ± 1.6	–
353.13 K, 79974 kPa	1234.36 ± 2.1	–
353.13 K, 119073 kPa	1248.32 ± 2.5	–
353.14 K, 89917 kPa	1238.07 ± 2.2	–
353.14 K, 99462 kPa	1241.53 ± 2.3	–
353.14 K, 109824 kPa	1245.17 ± 2.4	–
353.14 K, 129849 kPa	1251.87 ± 2.7	–
353.14 K, 139892 kPa	1255.06 ± 2.8	–
353.15 K, 101.33 kPa	1200.53 ± 1.3	14.6 ± 0.3
353.15 K, 49925 kPa	1222.47 ± 1.8	–
353.15 K, 69993 kPa	1230.52 ± 2	–
353.18 K, 59605 kPa	1226.41 ± 1.9	–
353.19 K, 1193 kPa	1201.04 ± 1.3	–
353.19 K, 4987 kPa	1202.81 ± 1.3	–
353.19 K, 10093 kPa	1205.15 ± 1.4	–
363.15 K, 101.33 kPa	1194.25 ± 1.3	11.9 ± 0.3
373.11 K, 118179 kPa	1236.88 ± 2.4	–
373.12 K, 19814 kPa	1197.22 ± 1.4	–
373.13 K, 10765 kPa	1192.98 ± 1.3	–
373.13 K, 29997 kPa	1201.88 ± 1.5	–
373.13 K, 39971 kPa	1206.31 ± 1.6	–
373.13 K, 98959 kPa	1230.06 ± 2.2	–
373.13 K, 109856 kPa	1233.98 ± 2.4	–
373.13 K, 129856 kPa	1240.8 ± 2.6	–
373.14 K, 49993 kPa	1210.64 ± 1.7	–
373.15 K, 101.33 kPa	–	9.7 ± 0.2
373.15 K, 59698 kPa	1214.72 ± 1.8	–
373.15 K, 90001 kPa	1226.72 ± 2.1	–
373.15 K, 140000 kPa	1244.08 ± 2.7	–
373.16 K, 69987 kPa	1218.92 ± 1.9	–
373.17 K, 1377 kPa	1188.48 ± 1.2	–
373.17 K, 5226 kPa	1190.34 ± 1.3	–
373.17 K, 79962 kPa	1222.87 ± 2	–
393.12 K, 910 kPa	1175.14 ± 1.2	–
393.12 K, 59389 kPa	1202.77 ± 1.8	–
393.12 K, 69993 kPa	1207.25 ± 1.9	–
393.12 K, 79111 kPa	1210.99 ± 1.9	–
393.13 K, 5153 kPa	1177.31 ± 1.2	–
393.13 K, 89994 kPa	1215.29 ± 2.1	–
393.14 K, 99376 kPa	1218.86 ± 2.2	–
393.15 K, 49959 kPa	1198.64 ± 1.6	–
393.15 K, 109877 kPa	1222.71 ± 2.3	–
393.15 K, 119972 kPa	1226.26 ± 2.4	–
393.15 K, 129874 kPa	1229.6 ± 2.5	–
393.15 K, 139106 kPa	1232.59 ± 2.6	–
393.16 K, 10368 kPa	1179.94 ± 1.3	–
393.16 K, 20408 kPa	1184.89 ± 1.4	–
393.16 K, 29995 kPa	1189.49 ± 1.5	–
393.16 K, 39725 kPa	1194.02 ± 1.6	–
413.12 K, 9823 kPa	1167.05 ± 1.3	–
413.12 K, 98120 kPa	1207.66 ± 2.1	–
413.13 K, 19924 kPa	1172.37 ± 1.3	–
413.13 K, 109866 kPa	1212.06 ± 2.2	–
413.13 K, 120361 kPa	1215.8 ± 2.3	–
413.15 K, 5311 kPa	1164.62 ± 1.2	–
413.15 K, 29993 kPa	1177.5 ± 1.4	–
413.15 K, 89994 kPa	1204.48 ± 2	–
413.15 K, 129864 kPa	1219.02 ± 2.4	–
413.17 K, 1563 kPa	1162.57 ± 1.2	–
413.17 K, 39896 kPa	1182.37 ± 1.5	–
413.17 K, 49998 kPa	1187.17 ± 1.6	–
413.17 K, 59469 kPa	1191.52 ± 1.7	–
413.17 K, 69996 kPa	1196.16 ± 1.8	–
413.17 K, 139292 kPa	1222.06 ± 2.5	–
413.18 K, 79893 kPa	1200.36 ± 1.9	–
